Measured values from ChEMBL document CHEMBL2440076, “New triarylpyrazoles as broad-spectrum anticancer agents: design, synthesis, and biological evaluation” (Eur J Med Chem, 2013).

Columns and labels:
Format in all cases: functional
NCI-H460 = test: Growth inhibition of human NCI-H460 cells assessed as cell growth at 5X10'-8 M after 48 hrs by sulforhodamine B assay; conditions: NCI-H460, 48 h, read-out: Activity
NCI-H23 = test: Growth inhibition of human NCI-H23 cells assessed as cell growth at 5X10'-6 M after 48 hrs by sulforhodamine B assay; conditions: NCI-H23, 48 h, read-out: Activity
PC-3 [1] = test: Growth inhibition of human PC3 cells assessed as cell growth at 3X10'-9 M after 48 hrs by sulforhodamine B assay; conditions: PC-3, 48 h, read-out: Activity
SF-539 = test: Growth inhibition of human SF539 cells assessed as cell growth at 3X10'-7 M after 48 hrs by sulforhodamine B assay; conditions: SF-539, 48 h, read-out: Activity
BT-549 = test: Growth inhibition of human BT549 cells assessed as cell growth at 3X10'-9 M after 48 hrs by sulforhodamine B assay; conditions: BT-549, 48 h, read-out: Activity
A498 [2] = test: Growth inhibition of human A498 cells assessed as cell growth at 3X10'-7 M after 48 hrs by sulforhodamine B assay; conditions: A498, 48 h, read-out: Activity
SNB-75 [3] = test: Growth inhibition of human SNB75 cells assessed as cell growth at 3X10'-8 M after 48 hrs by sulforhodamine B assay; conditions: SNB-75, 48 h, read-out: Activity
NCI-H226 [4] = test: Growth inhibition of human NCI-H226 cells assessed as cell growth at 3X10'-7 M after 48 hrs by sulforhodamine B assay; conditions: NCI-H226, 48 h, read-out: Activity
MDA-MB-468 = test: Growth inhibition of human MDA-MB-468 cells assessed as cell growth at 3X10'-9 M after 48 hrs by sulforhodamine B assay; conditions: MDA-MB-468, 48 h, read-out: Activity
SF-268 = test: Growth inhibition of human SF268 cells assessed as cell growth at 3X10'-7 M after 48 hrs by sulforhodamine B assay; conditions: SF-268, 48 h, read-out: Activity
OVCAR-8 = test: Growth inhibition of human OVCAR8 cells assessed as cell growth at 3X10'-5 M after 48 hrs by sulforhodamine B assay; conditions: OVCAR-8, 48 h, read-out: Activity
KM12 = test: Growth inhibition of human KM12 cells assessed as cell growth at 3X10'-6 M after 48 hrs by sulforhodamine B assay; conditions: KM12, 48 h, read-out: Activity
SK-MEL-28 [5] = test: Growth inhibition of human SK-MEL-28 cells assessed as cell growth at 3X10'-5 M after 48 hrs by sulforhodamine B assay; conditions: SK-MEL-28, 48 h, read-out: Activity
SK-MEL-28 [6] = test: Growth inhibition of human SK-MEL-28 cells assessed as cell growth at 3X10'-7 M after 48 hrs by sulforhodamine B assay; conditions: SK-MEL-28, 48 h, read-out: Activity
UO-31 = test: Growth inhibition of human UO31 cells assessed as cell growth at 3X10'-7 M after 48 hrs by sulforhodamine B assay; conditions: UO-31, 48 h, read-out: Activity
A498 [7] = test: Growth inhibition of human A498 cells assessed as cell growth at 3X10'-8 M after 48 hrs by sulforhodamine B assay; conditions: A498, 48 h, read-out: Activity
HCT-116 = test: Growth inhibition of human HCT116 cells assessed as cell growth at 3X10'-7 M after 48 hrs by sulforhodamine B assay; conditions: HCT-116, 48 h, read-out: Activity
HCT-15 = test: Growth inhibition of human HCT15 cells assessed as cell growth at 3X10'-9 M after 48 hrs by sulforhodamine B assay; conditions: HCT-15, 48 h, read-out: Activity
HT-29 = test: Growth inhibition of human HT-29 cells assessed as cell growth at 3X10'-9 M after 48 hrs by sulforhodamine B assay; conditions: HT-29, 48 h, read-out: Activity
[8] = Growth inhibition of human Hs 578T cells assessed as cell growth at 3X10'-5 M after 48 hrs by sulforhodamine B assay; conditions: read-out: Activity
M14 = test: Growth inhibition of human M14 cells assessed as cell growth at 3X10'-6 M after 48 hrs by sulforhodamine B assay; conditions: M14, 48 h, read-out: Activity
SK-MEL-5 = test: Growth inhibition of human SK-MEL-5 cells assessed as cell growth at 3X10'-9 M after 48 hrs by sulforhodamine B assay; conditions: SK-MEL-5, 48 h, read-out: Activity
DU-145 [9] = test: Growth inhibition of human DU145 cells assessed as cell growth at 3X10'-9 M after 48 hrs by sulforhodamine B assay; conditions: DU-145, 48 h, read-out: Activity
RPMI-8226 = test: Growth inhibition of human RPMI8226 cells assessed as cell growth at 3X10'-5 M after 48 hrs by sulforhodamine B assay; conditions: RPMI-8226, 48 h, read-out: Activity
U-251 = test: Growth inhibition of human U251 cells assessed as cell growth at 3X10'-7 M after 48 hrs by sulforhodamine B assay; conditions: U-251, 48 h, read-out: Activity
COLO 205 = test: Growth inhibition of human COLO205 cells assessed as cell growth at 3X10'-8 M after 48 hrs by sulforhodamine B assay; conditions: COLO 205, 48 h, read-out: Activity
PC-3 [10] = test: Growth inhibition of human PC3 cells assessed as cell growth at 3X10'-7 M after 48 hrs by sulforhodamine B assay; conditions: PC-3, 48 h, read-out: Activity
SNB-75 [11] = test: Growth inhibition of human SNB75 cells assessed as cell growth at 3X10'-9 M after 48 hrs by sulforhodamine B assay; conditions: SNB-75, 48 h, read-out: Activity
ACHN = test: Growth inhibition of human ACHN cells assessed as cell growth at 3X10'-7 M after 48 hrs by sulforhodamine B assay; conditions: read-out: Activity
OVCAR-3 = test: Growth inhibition of human OVCAR3 cells assessed as cell growth at 3X10'-5 M after 48 hrs by sulforhodamine B assay; conditions: OVCAR-3, 48 h, read-out: Activity
CCRF-CEM = test: Growth inhibition of human CCRF-CEM cells assessed as cell growth at 3X10'-9 M after 48 hrs by sulforhodamine B assay; conditions: read-out: Activity
NCI-H226 [12] = test: Growth inhibition of human NCI-H226 cells assessed as cell growth at 3X10'-5 M after 48 hrs by sulforhodamine B assay; conditions: NCI-H226, 48 h, read-out: Activity
MDA-MB-435 = test: Growth inhibition of human MDA-MB-435 cells assessed as cell growth at 3X10'-7 M after 48 hrs by sulforhodamine B assay; conditions: MDA-MB-435, 48 h, read-out: Activity
NCI-H226 [13] = test: Growth inhibition of human NCI-H226 cells assessed as cell growth at 3X10'-9 M after 48 hrs by sulforhodamine B assay; conditions: NCI-H226, 48 h, read-out: Activity
DU-145 [14] = test: Growth inhibition of human DU145 cells assessed as cell growth at 3X10'-8 M after 48 hrs by sulforhodamine B assay; conditions: DU-145, 48 h, read-out: Activity
SW-620 = test: Growth inhibition of human SW620 cells assessed as cell growth at 3X10'-7 M after 48 hrs by sulforhodamine B assay; conditions: SW-620, 48 h, read-out: Activity

Row | SMILES | growth at 0.05 µM (NCI-H460) | growth at 5 µM (NCI-H23) | growth at 0.003 µM (PC-3 [1]) | growth at 0.3 µM (SF-539) | growth at 0.003 µM (BT-549) | growth at 0.3 µM (A498 [2]) | growth at 0.03 µM (SNB-75 [3]) | growth at 0.3 µM (NCI-H226 [4]) | growth at 0.003 µM (MDA-MB-468) | growth at 0.3 µM (SF-268) | growth at 30 µM (OVCAR-8) | growth at 3 µM (KM12) | growth at 30 µM (SK-MEL-28 [5]) | growth at 0.3 µM (SK-MEL-28 [6]) | growth at 0.3 µM (UO-31) | growth at 0.03 µM (A498 [7]) | growth at 0.3 µM (HCT-116) | growth at 0.003 µM (HCT-15) | growth at 0.003 µM (HT-29) | growth at 30 µM [8] | further results
1 | COc1cc(-c2nn(-c3cccc(NC(=O)Nc4cc(C(F)(F)F)cc(C(F)(F)F)c4)c3)cc2-c2ccncc2)ccc1Cl | 100% | -18% | – | – | – | – | – | – | – | – | – | – | – | – | – | – | – | – | – | – | –
2 | COc1cc(-c2nn(-c3cccc(NC(=O)c4ccc(Cl)c(C(F)(F)F)c4)c3)cc2-c2ccncc2)ccc1Cl | – | – | 94% | 91% | 96% | 82% | 89% | 84% | 89% | 89% | 15% | 39% | 29% | 95% | 47% | 89% | 100% | 99% | 90% | 5% | growth at 3 µM (M14): 47%; growth at 0.003 µM (SK-MEL-5): 99%; growth at 0.003 µM (DU-145 [9]): 100%; growth at 30 µM (RPMI-8226): 5%; growth at 0.3 µM (U-251): 91%; growth at 0.03 µM (COLO 205): 97%; growth at 0.3 µM (PC-3 [10]): 78%; growth at 0.003 µM (SNB-75 [11]): 86%; growth at 0.3 µM (ACHN): 90%; growth at 30 µM (OVCAR-3): -12%; growth at 0.003 µM (CCRF-CEM): 96%; growth at 30 µM (NCI-H226 [12]): 23%; growth at 0.3 µM (MDA-MB-435): 87%; growth at 0.003 µM (NCI-H226 [13]): 92%; growth at 0.03 µM (DU-145 [14]): 100%; growth at 0.3 µM (SW-620): 91%
3 | O=C(Nc1cccc(-n2cc(-c3ccncc3)c(-c3ccc(Cl)c(O)c3)n2)c1)Nc1ccc(Cl)c(C(F)(F)F)c1 | – | – | 93% | 89% | 102% | 95% | 92% | 82% | 89% | 93% | -14% | 2% | -87% | 95% | 82% | 91% | 94% | 98% | 97% | -8% | growth at 3 µM (M14): -7%; growth at 0.003 µM (SK-MEL-5): 99%; growth at 0.003 µM (DU-145 [9]): 101%; growth at 30 µM (RPMI-8226): -15%; growth at 0.3 µM (U-251): 82%; growth at 0.03 µM (COLO 205): 100%; growth at 0.3 µM (PC-3 [10]): 73%; growth at 0.003 µM (SNB-75 [11]): 93%; growth at 0.3 µM (ACHN): 84%; growth at 30 µM (OVCAR-3): -16%; growth at 0.003 µM (CCRF-CEM): 98%; growth at 30 µM (NCI-H226 [12]): 5%; growth at 0.3 µM (MDA-MB-435): 86%; growth at 0.003 µM (NCI-H226 [13]): 88%; growth at 0.03 µM (DU-145 [14]): 105%; growth at 0.3 µM (SW-620): 105%
4 | COc1cc(-c2nn(-c3cccc(NC(=O)c4cccc(C(F)(F)F)c4)c3)cc2-c2ccncc2)ccc1Cl | 100% | 13% | – | – | – | – | – | – | – | – | – | – | – | – | – | – | – | – | – | – | –
